Test results from a compilation of properties of binary mixtures (doi:10.1007/s10953-012-9875-7).

Assay: xn = mol fraction of the nth substance listed
Conditions: 101 kPa

O + CCCC[N+]1(C)CCCC1.N#C[S-]
x1 = 1
Conditions | viscosity [mPa·s]
298.15 K | 0.89
308.15 K | 0.74
318.15 K | 0.63
328.15 K | 0.56
338.15 K | 0.5
348.15 K | 0.43

O + CCCC[N+]1(C)CCCCC1.N#C[S-]
x1 = 1
Conditions | viscosity [mPa·s]
328.15 K | 0.56
338.15 K | 0.5
348.15 K | 0.43

O + CCCC[n+]1ccc(C)cc1.N#C[S-]
x1 = 1
Conditions | viscosity [mPa·s]
298.15 K | 0.89
308.15 K | 0.74
318.15 K | 0.63
328.15 K | 0.56
338.15 K | 0.5
348.15 K | 0.43

O + CCCC[n+]1ccn(C)c1.N#C[S-]
x1 = 1
Conditions | viscosity [mPa·s]
308.15 K | 0.74
318.15 K | 0.63
328.15 K | 0.56
348.15 K | 0.46

CCCC[N+]1(C)CCCC1.N#C[S-] + O
viscosity [mPa·s]
Conditions | x2 = 0 | x2 = 0.0853 | x2 = 0.2203 | x2 = 0.3555 | x2 = 0.5252 | x2 = 0.6634 | x2 = 0.783 | x2 = 0.8623 | x2 = 0.9657
298.15 K | 109 | 92 | – | 49.3 | – | 17.6 | – | – | 1.74
308.15 K | 70.4 | 59.4 | 45.2 | 33.2 | – | – | 7.27 | – | –
318.15 K | 47.8 | 40.3 | – | 23.5 | 14.38 | 9.15 | 5.46 | – | –
328.15 K | 34.1 | – | 23 | 17.3 | 10.87 | 7.02 | – | 2.54 | 0.92
338.15 K | – | 21.5 | – | 13.08 | 8.49 | 5.53 | – | 2.02 | –
348.15 K | 19.3 | 16.5 | – | 10.21 | 6.81 | – | 2.65 | 1.67 | –

CCCC[N+]1(C)CCCCC1.N#C[S-] + O
viscosity [mPa·s]
Conditions | x2 = 0 | x2 = 0.2774 | x2 = 0.3741 | x2 = 0.5111 | x2 = 0.6302 | x2 = 0.7172 | x2 = 0.8248 | x2 = 0.9351
318.15 K | 265 | 94.9 | – | 33 | 19.13 | 12.13 | 6.02 | 1.97
328.15 K | 152 | – | – | 22.33 | – | 8.79 | 4.47 | 1.57
338.15 K | 93.5 | – | 25.6 | 15.96 | 9.94 | 6.6 | 3.41 | 1.28
348.15 K | 60.5 | 27.83 | 18.51 | – | 7.6 | 5.08 | 2.71 | 1.07

CCCC[n+]1ccc(C)cc1.N#C[S-] + O
viscosity [mPa·s]
Conditions | 298.15 K | 308.15 K | 318.15 K | 328.15 K | 338.15 K | 348.15 K
x1 = 0.0076 | 1.07 | 0.87 | – | 0.63 | 0.57 | 0.52
x2 = 0 | 86 | 51.75 | – | 23.5 | – | 12.86
x2 = 0.0564 | – | 46 | 30.4 | 21.3 | 15.54 | 11.74
x2 = 0.1655 | 57.6 | 36.4 | 24.6 | 17.5 | – | –
x2 = 0.278 | 43.1 | 28 | 19.3 | 13.95 | 10.49 | 8.18
x2 = 0.3797 | 31.3 | 20.9 | 14.68 | 10.87 | – | 6.62
x2 = 0.4628 | 24.8 | 16.8 | 12.14 | 9.17 | – | 5.73
x2 = 0.5669 | 17.8 | 12.47 | 9.17 | 7.02 | – | –
x2 = 0.6364 | 14.06 | – | 7.48 | 5.78 | 4.58 | 3.69
x2 = 0.7623 | 8.6 | 6.3 | 4.78 | 3.7 | – | 2.44
x2 = 0.8333 | 6.04 | 4.45 | 3.37 | 2.66 | 2.08 | 1.62
x2 = 0.9028 | 3.65 | 2.74 | 2.13 | – | 1.41 | 1.24
x2 = 0.957 | 1.98 | 1.53 | 1.23 | – | 0.86 | –
x2 = 0.9714 | – | – | – | – | – | 0.64

CCCC[n+]1ccn(C)c1.N#C[S-] + O
viscosity [mPa·s]
Conditions | 298.15 K | 308.15 K | 318.15 K | 328.15 K | 338.15 K | 348.15 K
x2 = 0 | 51.74 | 34.9 | 24.2 | – | 12.73 | 9.98
x2 = 0.0998 | 40.2 | 26.9 | 19.1 | – | 10.98 | 8.73
x2 = 0.2007 | – | – | – | 12.2 | 9.53 | 7.61
x2 = 0.3169 | – | 18.1 | – | 10.12 | – | 6.4
x2 = 0.4346 | 19.5 | 13.91 | 10.4 | 8.04 | 6.37 | 5.14
x2 = 0.5296 | 15.17 | 10.96 | 8.29 | 6.44 | – | –
x2 = 0.6426 | 10.8 | 7.95 | 6.05 | – | 3.76 | 3.1
x2 = 0.7201 | 8.27 | 6.14 | – | – | 2.96 | 2.48
x2 = 0.7949 | 5.95 | 4.36 | 3.33 | 2.67 | – | 1.86
x2 = 0.8733 | 3.75 | 2.84 | 2.23 | 1.82 | 1.51 | 1.28
x2 = 0.9444 | 2.02 | 1.58 | 1.27 | 1.05 | 0.9 | 0.78
